Biological target: T1, human Nav1.6 (hNav1.6) (Homo sapiens, UniProt Q9UQD0)
T1 construct: expressed in transfected cells; host or cells: HEK-293 (G418 selection)
Assay: Modulation of late sodium current (INaL), PatchXpress electrophysiology
Assay type: cell-based
Settings: HEK293; 1 μM compound; HEK-293 cells expressing recombinant human Nav channel; late current evoked by 300 nM ATX-II; steady-state inhibition; read-out: INaL v1.6 (1 μM, % Inhibition)
Method: Functional characterization of exemplary compounds to modulate INaL expressed by the Nav1.6 voltage-gated sodium channel was accomplished using the PatchXpress™ high throughput electrophysiology platform (Molecular Devices, Sunnyvale, Calif.). HEK-293 cells expressing recombinant, human Nav1.6 (hNav1.6) were grown in DMEM/high-glucose Dulbecco's modified, 10% FBS, 2 mM sodium pyruvate, 10 mM HEPES and 400 μg/mL G418. Cells were grown to 50%-80% confluency prior to harvesting. Trypsinized cells were washed, allowed to recover for 1 hour and then resuspended in extracellular recording solution at a concentration of 1×10^6 cells/ml. The onboard liquid handling facility of the PatchXpress was used for dispensing cells and applying test compounds. Nav late currents were evoked by the application of 300 nM ATX-II. INaL was evoked by depolarizing pulses to 0 mV for 200 ms from a non-inactivating holding potential (e.g., −120 mV) at a frequency of 0.1 Hz. INaL amplitude and stability were determined by analyzing the mean current amplitude over the final 20 ms of the test pulse. […] Percent steady-state inhibition of INaL was calculated as: [(INaL_compound)/(INaL_control)]*100, where INaL_compound and INaL_control represent INaL recorded in the presence or absence of compound, respectively.

T1 sequence (Q9UQD0 whole entry): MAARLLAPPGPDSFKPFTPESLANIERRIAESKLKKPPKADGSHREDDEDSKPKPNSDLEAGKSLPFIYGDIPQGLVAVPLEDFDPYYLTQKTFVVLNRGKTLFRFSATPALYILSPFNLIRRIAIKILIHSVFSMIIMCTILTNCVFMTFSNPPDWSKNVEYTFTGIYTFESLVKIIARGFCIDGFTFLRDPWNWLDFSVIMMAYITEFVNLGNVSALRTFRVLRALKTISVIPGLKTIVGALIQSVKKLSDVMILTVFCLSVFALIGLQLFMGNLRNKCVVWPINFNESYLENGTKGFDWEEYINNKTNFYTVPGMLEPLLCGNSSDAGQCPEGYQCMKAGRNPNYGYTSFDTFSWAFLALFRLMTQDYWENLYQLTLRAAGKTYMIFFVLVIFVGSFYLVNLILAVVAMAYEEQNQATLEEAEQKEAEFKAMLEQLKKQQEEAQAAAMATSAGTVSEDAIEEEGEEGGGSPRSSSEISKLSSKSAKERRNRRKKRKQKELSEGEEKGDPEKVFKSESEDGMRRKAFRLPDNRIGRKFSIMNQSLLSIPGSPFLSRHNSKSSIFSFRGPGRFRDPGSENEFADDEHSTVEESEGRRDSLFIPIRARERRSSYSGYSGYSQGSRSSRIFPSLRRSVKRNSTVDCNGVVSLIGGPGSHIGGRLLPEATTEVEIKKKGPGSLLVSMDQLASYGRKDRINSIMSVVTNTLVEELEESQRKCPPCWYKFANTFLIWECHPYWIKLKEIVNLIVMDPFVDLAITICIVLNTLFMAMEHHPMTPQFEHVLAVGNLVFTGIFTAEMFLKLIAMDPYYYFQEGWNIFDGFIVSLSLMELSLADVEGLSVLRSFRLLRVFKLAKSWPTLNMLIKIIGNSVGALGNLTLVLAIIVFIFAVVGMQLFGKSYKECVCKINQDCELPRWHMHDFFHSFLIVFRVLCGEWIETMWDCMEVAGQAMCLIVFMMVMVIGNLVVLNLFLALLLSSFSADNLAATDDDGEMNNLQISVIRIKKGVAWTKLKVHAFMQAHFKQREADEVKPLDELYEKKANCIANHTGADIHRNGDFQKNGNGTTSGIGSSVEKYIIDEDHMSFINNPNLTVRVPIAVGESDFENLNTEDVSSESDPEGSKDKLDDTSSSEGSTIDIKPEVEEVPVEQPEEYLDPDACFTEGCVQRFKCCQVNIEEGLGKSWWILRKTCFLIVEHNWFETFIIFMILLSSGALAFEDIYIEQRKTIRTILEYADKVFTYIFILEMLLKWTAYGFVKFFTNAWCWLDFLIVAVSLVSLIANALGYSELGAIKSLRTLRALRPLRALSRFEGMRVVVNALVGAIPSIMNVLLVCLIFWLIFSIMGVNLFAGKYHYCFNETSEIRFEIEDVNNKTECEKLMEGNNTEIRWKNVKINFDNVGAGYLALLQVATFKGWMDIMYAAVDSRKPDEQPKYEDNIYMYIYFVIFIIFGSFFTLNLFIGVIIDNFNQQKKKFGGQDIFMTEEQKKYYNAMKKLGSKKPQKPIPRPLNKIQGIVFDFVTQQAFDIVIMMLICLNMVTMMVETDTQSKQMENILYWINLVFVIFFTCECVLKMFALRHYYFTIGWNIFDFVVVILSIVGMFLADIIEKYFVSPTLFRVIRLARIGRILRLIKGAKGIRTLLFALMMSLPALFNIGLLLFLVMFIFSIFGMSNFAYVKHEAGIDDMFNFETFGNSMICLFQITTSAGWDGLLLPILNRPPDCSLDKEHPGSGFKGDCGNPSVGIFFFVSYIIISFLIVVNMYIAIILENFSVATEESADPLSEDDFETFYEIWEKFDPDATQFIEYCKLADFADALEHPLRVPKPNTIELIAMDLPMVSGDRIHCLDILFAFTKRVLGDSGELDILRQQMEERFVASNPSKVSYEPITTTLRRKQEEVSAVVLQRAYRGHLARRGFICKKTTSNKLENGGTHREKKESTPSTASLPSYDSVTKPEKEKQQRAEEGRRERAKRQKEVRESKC

SMILES | inhibition at 1 µM [%]
O=c1oc2ccc(-c3ccc(OC(F)(F)F)cc3)nc2n1C[C@H]1CCCCO1 (single isomer, unassigned) [Compound 54] | 30 to 70
O=c1oc2ccc(-c3ccc(OC(F)(F)F)cc3)nc2n1C[C@@H]1CCCCO1 (single isomer, unassigned) [Compound 55] | 30 to 70
O=c1oc2ccc(-c3ccc(OC(F)(F)F)cc3)cc2n1C[C@@H]1CCCCO1 (single isomer, unassigned) [Compound 58] | > 70
O=c1oc2ccc(-c3ccc(OC(F)(F)F)cc3)cc2n1C[C@H]1CCCCO1 (single isomer, unassigned) [Compound 59] | 30 to 70
O=c1oc2ccc(-c3ccc(OC(F)(F)F)cc3)nc2n1C[C@@H]1CCOC1 (single isomer, unassigned) [Compound 61] | > 70
O=c1oc2ccc(-c3ccc(OC(F)(F)F)cc3)nc2n1C[C@H]1CCOC1 (single isomer, unassigned) [Compound 62] | > 70
O=c1oc2ccc(-c3ccc(OC(F)(F)F)cc3)nc2n1C[C@@H]1CCCO1 (single isomer, unassigned) [Compound 64] | > 70
O=c1oc2ccc(-c3ccc(OC(F)(F)F)cc3)nc2n1C[C@H]1CCCO1 (single isomer, unassigned) [Compound 65] | 30 to 70
O=c1oc2ccc(-c3ccc(OC(F)(F)F)cc3)nc2n1C[C@H]1CCCOC1 (single isomer, unassigned) [Compound 66] | > 70
O=c1oc2ccc(-c3ccc(OC(F)(F)F)cc3)nc2n1C[C@@H]1CCCOC1 (single isomer, unassigned) [Compound 67] | > 70
O=c1oc2ccc(-c3ccc(OC(F)(F)F)cc3)cc2n1C[C@@H]1CCOC1 (single isomer, unassigned) [Compound 69] | > 70
O=c1oc2ccc(-c3ccc(OC(F)(F)F)cc3)cc2n1C[C@H]1CCOC1 (single isomer, unassigned) [Compound 70] | 30 to 70
O=c1oc2ccc(-c3ccc(OC(F)(F)F)cc3)cc2n1C[C@H]1CCCOC1 (single isomer, unassigned) [Compound 73] | > 70
C[C@H](O)CCn1c(=O)oc2ccc(-c3ccc(OC(F)(F)F)cc3)nc21 (single isomer, unassigned) [Compound 99] | > 70
C[C@@H](O)CCn1c(=O)oc2ccc(-c3ccc(OC(F)(F)F)cc3)nc21 (single isomer, unassigned) [Compound 100] | > 70
O=c1oc2ccc(-c3ccc(OC(F)(F)F)cc3)nc2n1C[C@H]1CC1(F)F (single isomer, unassigned) [Compound 106] | > 70
O=c1oc2ccc(-c3ccc(OC(F)(F)F)cc3)nc2n1C[C@@H]1CC1(F)F (single isomer, unassigned) [Compound 107] | 30 to 70
COC[C@@H]1CCN(C(=O)Cn2c(=O)oc3ccc(-c4ccc(OC(F)(F)F)cc4)cc32)C1 (single isomer, unassigned) [Compound 138] | 30 to 70
COC[C@H]1CCN(C(=O)Cn2c(=O)oc3ccc(-c4ccc(OC(F)(F)F)cc4)cc32)C1 (single isomer, unassigned) [Compound 139] | 30 to 70
C[C@H](Cn1c(=O)oc2ccc(-c3ccc(OC(F)(F)F)cc3)nc21)c1ncccn1 (single isomer, unassigned) [Compound 149] | > 70
C[C@@H](Cn1c(=O)oc2ccc(-c3ccc(OC(F)(F)F)cc3)nc21)c1ncccn1 (single isomer, unassigned) [Compound 150] | 30 to 70
O=c1oc2ccc(-c3ccc(OC(F)(F)F)cc3)cc2n1CC(F)(F)F [Compound 2] | 30 to 70
Cc1nnc(CCn2c(=O)oc3ccc(-c4ccc(OC(F)(F)F)cc4)cc32)o1 [Compound 3] | > 70
O=C1Cc2ccc(-c3ccc(OC(F)(F)F)cc3)cc2N1CC(F)(F)F [Compound 4] | > 70
O=c1[nH]c2cc(-c3ccc(OC(F)(F)F)cc3)ccc2o1 [Compound 5, 5-[4-(trifluoromethoxy)phenyl]-3H-1,3-benzoxazol-2-one] | > 70

SMILES | inhibition at 1 µM [%]
O=c1oc2ccc(-c3ccc(OCC(F)(F)F)nc3)cc2n1CC(F)(F)F [Compound 6] | 30 to 70
COCc1cc(OC(F)(F)F)ccc1-c1ccc2oc(=O)n(CC(F)(F)F)c2c1 [Compound 7] | > 70
COCCn1c(=O)oc2ccc(-c3ccc(OC(F)(F)F)cc3)cc21 [Compound 9] | < 30
Cn1c(=O)oc2ccc(-c3ccc(OC(F)(F)F)cc3)cc21 [Compound 10] | > 70
CCn1c(=O)oc2ccc(-c3ccc(OC(F)(F)F)cc3)cc21 [Compound 11] | > 70
O=c1oc2ccc(-c3ccc(OC(F)(F)F)cc3)cc2n1CC1CC1 [Compound 12] | > 70
COCCCn1c(=O)oc2ccc(-c3ccc(OC(F)(F)F)cc3)cc21 [Compound 15] | < 30
O=C(O)Cn1c(=O)oc2ccc(-c3ccc(OC(F)(F)F)cc3)cc21 [Compound 16, 2-[2-oxo-5-[4-(trifluoromethoxy)phenyl]-1,3-benzoxazol-3-yl]acetic acid] | < 30
O=C(Cn1c(=O)oc2ccc(-c3ccc(OC(F)(F)F)cc3)cc21)N1CCCC1 [Compound 17] | 30 to 70
O=c1oc2ccc(-c3ccc(OC(F)(F)F)cc3)cc2n1CCC1CC1 [Compound 19] | > 70
O=c1[nH]c2cc(-c3ccc(OCC(F)(F)F)nc3)ccc2o1 [Compound 20] | 30 to 70
Cc1nnc(CCN2C(=O)Cc3ccc(-c4ccc(OC(F)(F)F)cc4)cc32)o1 [Compound 21] | 30 to 70
O=c1oc2ncc(-c3ccc(OC(F)(F)F)cc3)cc2n1CC(F)(F)F [Compound 22] | < 30
O=C(O)CCn1c(=O)oc2ccc(-c3ccc(OC(F)(F)F)cc3)cc21 [Compound 24] | < 30
O=C(CCn1c(=O)oc2ccc(-c3ccc(OC(F)(F)F)cc3)cc21)N1CCCC1 [Compound 26] | > 70
CCN(CC)C(=O)CCn1c(=O)oc2ccc(-c3ccc(OC(F)(F)F)cc3)cc21 [Compound 28] | > 70
O=c1[nH]c2nc(-c3ccc(OC(F)(F)F)cc3)ccc2o1 [Compound 29, 5-[4-(trifluoromethoxy)phenyl]-3H-oxazolo[4,5-b]pyridin-2-one] | < 30
O=C1CCCN1CCCn1c(=O)oc2ccc(-c3ccc(OC(F)(F)F)cc3)cc21 [Compound 30] | 30 to 70
O=C1OCCN1CCCn1c(=O)oc2ccc(-c3ccc(OC(F)(F)F)cc3)cc21 [Compound 31] | 30 to 70
Cn1c(=O)n(CC(F)(F)F)c2cc(-c3ccc(OC(F)(F)F)cc3)ccc21 [Compound 32] | 30 to 70
O=c1oc2ccc(-c3ccc(OC(F)(F)F)cc3)nc2n1CC(F)(F)F [Compound 33] | > 70
O=c1oc2ncc(-c3ccc(OC(F)(F)F)cc3)cc2n1Cc1ccccc1 [Compound 34] | 30 to 70
O=c1[nH]c2cc(-c3ccc(OC(F)(F)F)cc3)cnc2o1 [Compound 37] | 30 to 70
CCN(CC)C(=O)Cn1c(=O)oc2ccc(-c3ccc(OC(F)(F)F)cc3)cc21 [Compound 39] | > 70
O=C(Cn1c(=O)oc2ccc(-c3ccc(OC(F)(F)F)cc3)cc21)N1CCOCC1 [Compound 40] | 30 to 70

Source: patent US11492345B2, “Compounds and their methods of use” (Praxis Precision Medicines, Inc., priority 2017, dated 2022)
